The text below walks through data of patent publication US12564638B2 (SHANGHAITECH UNIVERSITY, priority 2019, dated 2026).

pIC50: −log10 of the molar value. Read-outs that look alike come from different tables or passages of the source.

Common to all, as to format: cell-based
Test [1] relates to PC9 cells (EGFR Exon 19 del, non-small cell lung cancer cells). The test is described as follows: Cell viability assay (WST/CCK8), PC9 cells. The conditions noted are these: Homo sapiens, PC-9, 72 hours, read-out: IC50 (half inhibitory concentration). The gist of the method: (§1)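 Plated 3 000 cells/well in complete RPMI1640 the day before dosing; controls were DMSO (negative) and EGFR TKIs (positive).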

The subject of test [2] is HCC827 cells (EGFR Exon19 del, non-small cell lung cancer cells). Briefly: Cell viability assay (WST/CCK8), HCC827 cells. To be noted: Homo sapiens, HCC827, 72 h, 72 hours, read-out: IC50 (half inhibitory concentration). The method in brief: as §1
Test [3] concerns PC9BracA1 (EGFR Exon 19 del+T790M, non-small cell lung cancer cells). Briefly: Cell viability assay (WST/CCK8), PC9Brac1 cells. To be noted: 72 hours, WST, read-out: IC50 (half inhibitory concentration). An excerpt:
(§2) The cell lines with abnormal EGFR expression used are as follows: • HCC827 cells (EGFR Exon19 del, non-small cell lung cancer cells); • PC9 cells (EGFR Exon 19 del, non-small cell lung cancer cells); • PC9BracA1 (EGFR Exon 19 del+T790M, non-small cell lung cancer cells) • H1975 (EGFR Exon T790M+L858R mutation, non-small cell lung cancer cell line) • BT474 cells (HER2 positive breast cancer cells)
(§3) All of the half inhibitory concentrations (IC50) of these compounds of the present invention were determined with WST reagent from Fuyuan Biotec Company. The specific experiment procedures are as follows: Cancer cells were planted in 96-well-plate at the density of 3 000 cells per well with 100 μL RPMI1640 completed culture medium. In the next day, compounds with indicated concentrations were added to the cells, DMSO was used as the negative control and the EGFR TKIs were used to treat cells as the positive groups. After 72 hours drug treatment, cell viability was measured by using the WST reagent following the instructions.

Test [4] concerns H1975 (EGFR T790M+L858R mutation, non-small cell lung cancer cell line). The test is described as follows: Cell viability assay (WST/CCK8), H1975 cells. To be noted: Homo sapiens, NCI-H1975, read-out: IC50 (half inhibitory concentration).
Excerpt: as §2, §3

Test [5] relates to BT474 cells (HER2 positive breast cancer cells). Briefly: Cell viability assay (CCK8), BT474 cells. To be noted: Homo sapiens, BT-474, Table 10, BT474, 72 hours, read-out: IC50 (half inhibitory concentration).
Excerpt: as §2
as §3, with “instructions. The growth inhibition curve of the compounds on cells were plotted by Prism GraphPad, and the compounds IC50 calculated from it.” for “instructions.”
The cell viability assays were taken to determine the anti-tumor activity of these indicated compounds in BT474 cells, which can overexpress HER2 protein. The cells were treated with the gradient concentration of these compounds (the maximum concentration: 10 μM; 3-fold dilution ratio, 10 concentration gradients) for 72 hours and then incubated with the CCK8 reagent to determine the cell viability.

The mark [6] stands for this setting: Table 8, osimertinib-based compounds, PC9, WST.
Setting [7] is: Table 8, osimertinib-based compounds, HCC827, WST.
Where [8] appears, read: Table 8, osimertinib-based compounds, Pc9Brc1.
Setting [9] is: Table 8, osimertinib-based compounds, H1975, 72 hours, WST.
Setting [10] is: HCC827 (Exon19 Del), WST (CCK8).
Where [11] appears, read: H1975 (L858R + T790M), 72 hours, WST.

On to `C=CC(=O)Nc1cc(Nc2nccc(-c3cn(C)c4ccccc34)n2)c(OC)cc1N(C)CCN(C)CCCCCCCC#Cc1cccc2c1CN(C1CCC(=O)NC1=O)C2=O` (centres unmarked), for which the pIC50 in test [1] (setting [6]) was 6.79; in test [2] (setting [7]) it was 8.05; in test [3] (setting [8]), 6.38; in test [4] (setting [9]) it was 6.93.

Regarding `COc1cc2ncnc(Nc3ccc(F)c(Cl)c3)c2cc1NC(=O)/C=C/CN1CCC(N2CCNCC2)CC1` [SIAIS262021, (E)-N-(4-((3-chloro-4-fluorophenyl)amino)-7-methoxyquinazolin-6-yl)-4-(4-(piperazin-1-yl)piperidin-1-yl)but-2-enamide], the pIC50 in test [5] is 7.49; in test [3] (PC9Brac1 (Ex19del + T790M)) it was 6.02.

As for `C=CC(=O)Nc1cc(Nc2nccc(-c3cn(C)c4ccccc34)n2)c(OC)cc1N(C)CCN(C)C(=O)COCCOCCOCCSc1cccc2c1CN(C1CCC(=O)NC1=O)C2=O` (centres unmarked) [SIAIS337076, N-(2-((14-((2-(2,6-dioxopiperidin-3-yl)-1-oxoisoindolin-4-yl)thio)-3-methyl-4-oxo-6,9,12-trioxa-3-azatetradecyl)(methyl)amino)-4-methoxy-5-((4-(1-methyl-1H-indol-3-yl)pyrimidin-2-yl)amino)phenyl)acrylamide], the pIC50 in test [1] (setting [6]) was 6.34; in test [2] (setting [7]), 8.00; in test [3] (setting [8]), 6.52; in test [4] (setting [9]), 6.73.

As to `C=CC(=O)Nc1cc(Nc2nccc(-c3cn(C)c4ccccc34)n2)c(OC)cc1N(C)CCN(C)C(=O)COCCSc1cccc2c1CN(C1CCC(=O)NC1=O)C2=O` (centres unmarked) [SIAIS337074, N-(2-((2-(2-(2-((2-(2,6-dioxopiperidin-3-yl)-1-oxoisoindolin-4-yl)thio)ethoxy)-N-methylacetamido)ethyl)(methyl)amino)-4-methoxy-5-((4-(1-methyl-1H-indol-3-yl)pyrimidin-2-yl)amino)phenyl)acrylamide], the pIC50 was 7.04 in test [1] (setting [6]), 8.52 in test [2] (setting [7]), 6.62 in test [3] (setting [8]) and 6.84 in test [4] (setting [9]).

As for `C=CC(=O)Nc1cc2c(Nc3ccc(F)c(Cl)c3)ncnc2cc1OCCCN1CCC(N2CCN(C(=O)CCCCSc3cccc4c3CN(C3CCC(=O)NC3=O)C4=O)CC2)CC1` (centres unmarked) [SIAIS262175, N-(4-((3-chloro-4-fluorophenyl)amino)-7-(3-(4-(4-(5-((2-(2,6-dioxopiperidin-3-yl)-1-oxoisoindolin-4-yl)thio)pentanoyl)piperazin-1-yl)piperidin-1-yl)propoxy)quinazolin-6-yl)acrylamide], the pIC50 is 7.65 in test [5]; 7.77 in test [1] (Table 6, canertinib-based compounds, PC9 (Exon19 Del), WST); 8.17 in test [2] (Table 6, canertinib-based compounds, HCC827 (Exon19 Del), WST); 6.37 in test [4] (Table 7, canertinib-based compounds, H1975 (L858R + T790M)).

On to `C=CC(=O)Nc1cc(Nc2nccc(-c3cn(C)c4ccccc34)n2)c(OC)cc1N(C)CCN(C)C(=O)CCCCCSc1cccc2c1CN(C1CCC(=O)NC1=O)C2=O` (centres unmarked) [SIAIS337056, N-(2-((2-acrylamido-5-methoxy-4-((4-(1-methyl-1H-indol-3-yl)pyrimidin-2-yl)amino)phenyl)(methyl)amino)ethyl)-6-((2-(2,6-dioxopiperidin-3-yl)-1-oxoisoindolin-4-yl)thio)-N-methylhexanamide], for which the pIC50 in test [2] (setting [7]) is 6.94; in test [3] (setting [8]) it was 6.01.

In the case of `COc1cc2ncnc(Nc3ccc(F)c(Cl)c3)c2cc1NC(=O)/C=C/CN1CCC(NC(=O)CNc2cccc3c2C(=O)N(C2CCC(=O)NC2=O)C3=O)CC1` (centres unmarked) [SIAIS249081, (E)-N-(4-((3-chloro-4-fluorophenyl)amino)-7-methoxyquinazolin-6-yl)-4-(4-(2-((2-(2,6-dioxopiperidin-3-yl)-1,3-dioxoisoindolin-4-yl)amino)acetamido)piperidin-1-yl)but-2-enamide], the pIC50 in test [1] (PC9 (Exon19 Del), WST (CCK8)) is 7.49; in test [2] (setting [10]), 7.92; in test [4] (setting [11]), 6.94.

Turning to `C=CC(=O)Nc1cc(Nc2nccc(-c3cn(C)c4ccccc34)n2)c(OC)cc1N(C)CCN(C)C(=O)CCCCCCCCCSc1cccc2c1CN(C1CCC(=O)NC1=O)C2=O` (centres unmarked) [SIAIS337060, N-(2-((2-acrylamido-5-methoxy-4-((4-(1-methyl-1H-indol-3-yl)pyrimidin-2-yl)amino)phenyl)(methyl)amino)ethyl)-10-((2-(2,6-dioxopiperidin-3-yl)-1-oxoisoindolin-4-yl)thio)-N-methyldecanamide], the pIC50 in test [2] (setting [7]) is 6.92; in test [4] (setting [9]) it was 6.77.

Consider `COc1cc2ncnc(Nc3ccc(F)c(Cl)c3)c2cc1NC(=O)/C=C/CN1CCC(NC(=O)CCCCCNc2cccc3c2C(=O)N(C2CCC(=O)NC2=O)C3=O)CC1` (centres unmarked) [SIAIS249084, (E)-N-(1-(4-((4-((3-chloro-4-fluorophenyl)amino)-7-methoxyquinazolin-6-yl)amino)-4-oxobut-2-en-1-yl)piperidin-4-yl)-6-((2-(2,6-dioxopiperidin-3-yl)-1,3-dioxoisoindolin-4-yl)amino)hexanamide], for which the pIC50 was 8.22 in test [5]; 9.22 in test [1] (PC9 (Exon19 Del), WST (CCK8)); 8.52 in test [2] (setting [10]); 6.36 in test [3] (PC9Brac1 (Ex19del + T790M)).

Turning to `C=CC(=O)Nc1cc(Nc2nccc(-c3cn(C)c4ccccc34)n2)c(OC)cc1N(C)CCN(C)C(=O)CCCCCCSc1cccc2c1CN(C1CCC(=O)NC1=O)C2=O` (centres unmarked) [SIAIS337057, N-(2-((2-acrylamido-5-methoxy-4-((4-(1-methyl-1H-indol-3-yl)pyrimidin-2-yl)amino)phenyl)(methyl)amino)ethyl)-7-((2-(2,6-dioxopiperidin-3-yl)-1-oxoisoindolin-4-yl)thio)-N-methylheptanamide], the pIC50 in test [2] (setting [7]) is 7.32; in test [4] (setting [9]), 7.68.

Regarding `COc1cc2ncnc(Nc3ccc(F)c(Cl)c3)c2cc1NC(=O)/C=C/CN1CCC(NC(=O)CCCNc2cccc3c2C(=O)N(C2CCC(=O)NC2=O)C3=O)CC1` (centres unmarked) [SIAIS249083, (E)-N-(4-((3-chloro-4-fluorophenyl)amino)-7-methoxyquinazolin-6-yl)-4-(4-(4-((2-(2,6-dioxopiperidin-3-yl)-1,3-dioxoisoindolin-4-yl)amino)butanamido)piperidin-1-yl)but-2-enamide], the pIC50 in test [5] is 7.19; in test [1] (PC9 (Exon19 Del), WST (CCK8)), 8.54; in test [2] (setting [10]), 8.30; in test [3] (PC9Brac1 (Ex19del + T790M)) it was 6.36.

As to `COc1cc2ncnc(Nc3ccc(F)c(Cl)c3)c2cc1NC(=O)/C=C/CN1CCC(N2CCN(C(=O)CSc3cccc4c3CN(C3CCC(=O)NC3=O)C4=O)CC2)CC1` (centres unmarked) [SIAIS262034, (E)-N-(4-((3-chloro-4-fluorophenyl)amino)-7-methoxyquinazolin-6-yl)-4-(4-(4-(2-((2-(2,6-dioxopiperidin-3-yl)-1-oxoisoindolin-4-yl)thio)acetyl)piperazin-1-yl)piperidin-1-yl)but-2-enamide], the pIC50 was 7.95 in test [1] (PC9 (Exon19 Del), WST (CCK8)); 8.44 in test [2] (setting [10]); 6.08 in test [4] (setting [11]).

Take `C=CC(=O)Nc1cc(Nc2nccc(-c3cn(C)c4ccccc34)n2)c(OC)cc1N(C)CCN(C)CCCCCCCCSc1cccc2c1CN(C1CCC(=O)NC1=O)C2=O` (centres unmarked) [SIAIS337084, N-(2-((2-((8-((2-(2,6-dioxopiperidin-3-yl)-1-oxoisoindolin-4-yl)thio)octyl)(methyl)amino)ethyl)(methyl)amino)-4-methoxy-5-((4-(1-methyl-1H-indol-3-yl)pyrimidin-2-yl)amino)phenyl)acrylamide]: the figures for the pIC50 in test [1] (setting [6]), in test [2] (setting [7]) and in test [3] (setting [8]) were 6.57, 6.45 and 6.16, respectively.
